According to US9999619B2, “Piperidin-4-yl azetidine derivatives as JAK1 inhibitors” (Incyte Corporation, priority 2010, dated 2018):

Experiments:
Format in all cases: biochemical
[1] = target: human JAK1 (a.a. 837-1142) (Homo sapiens, UniProt P23458); assay: In vitro JAK kinase assay (HTRF, phosphorylation of a biotinylated peptide), JAK1; settings: measured at 1 mM ATP
In short: (§1)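 N-terminally His-tagged catalytic domains, baculovirus-expressed in insect cells and purified, were used as enzyme. Reactions ran 1 hr at room temperature and were stopped with a mix of 45 mM EDTA, 300 nM SA-APC and 6 nM Eu-Py20. The HTRF signal was read after 40 min of antibody binding.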

[2] = target: human JAK1 (a.a. 837-1142); assay: as above; settings: ratio of JAK2 IC50 to JAK1 IC50, measured at 1 mM ATP
In short: as §1

[3] = target: Jak2 (a.a. 828-1132) (Homo sapiens (Human), UniProt O60674); assay: In vitro JAK kinase assay (HTRF, phosphorylation of a biotinylated peptide), JAK2; settings: measured at 1 mM ATP
Chain of Jak2 (a.a. 828-1132) (O60674 828-1132): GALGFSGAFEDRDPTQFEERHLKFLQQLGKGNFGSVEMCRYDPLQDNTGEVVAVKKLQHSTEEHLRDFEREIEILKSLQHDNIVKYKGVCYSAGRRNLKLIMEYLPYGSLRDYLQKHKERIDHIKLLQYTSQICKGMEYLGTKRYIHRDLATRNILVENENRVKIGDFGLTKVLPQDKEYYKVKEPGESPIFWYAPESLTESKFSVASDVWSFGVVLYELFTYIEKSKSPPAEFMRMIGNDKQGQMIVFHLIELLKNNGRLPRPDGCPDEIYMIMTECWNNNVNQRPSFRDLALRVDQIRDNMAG
In short: as §1

| IC50 [1] [nM] | IC50 Ratio JAK2/JAK1 [2] | IC50 [3] [nM] | SMILES |
| --- | --- | --- | --- |
| ≤ 5 | 3.8 | 10 to 50 | N#CCC1(n2cc(-c3ncnc4[nH]ccc34)cn2)CN(C2CCN(Cc3cc(Br)nc(Br)c3)CC2)C1 [Example 225, {1-{1-[(2,6-dibromopyridin-4-yl)methyl]piperidin-4-yl}-3-[4-(7H-pyrrolo[2,3-d]pyrimidin-4-yl)-1H-pyrazol-1-yl]azetidin-3-yl}acetonitrile] |
| 5 to 20 | 5.1 | 50 to 100 | N#CCC1(n2cc(-c3ncnc4[nH]ccc34)cn2)CN(C2CCN(Cc3ccnc(C(F)(F)F)c3F)CC2)C1 [Example 231, {1-(1-{[3-fluoro-2-(trifluoromethyl)pyridin-4-yl]methyl}piperidin-4-yl)-3-[4-(7H-pyrrolo[2,3-d]pyrimidin-4-yl)-1H-pyrazol-1-yl]azetidin-3-yl}acetonitrile] |
| 5 to 20 | 0.7 | ≤ 10 | N#CCC1(n2cc(-c3ncnc4[nH]ccc34)cn2)CN(C2CCN(Cc3cc4ccccc4o3)CC2)C1 [Example 232, {1-[1-(1-benzofuran-2-ylmethyl)piperidin-4-yl]-3-[4-(7H-pyrrolo[2,3-d]pyrimidin-4-yl)-1H-pyrazol-1-yl]azetidin-3-yl}acetonitrile] |
| ≤ 5 | 4.2 | 10 to 50 | N#CCC1(n2cc(-c3ncnc4[nH]ccc34)cn2)CN(C2CCN(Cc3ccc4c(c3)OCCO4)CC2)C1 [Example 234, {1-[1-(2,3-dihydro-1,4-benzodioxin-6-ylmethyl)piperidin-4-yl]-3-[4-(7H-pyrrolo[2,3-d]pyrimidin-4-yl)-1H-pyrazol-1-yl]azetidin-3-yl}acetonitrile] |
| 5 to 20 | 2.3 | 10 to 50 | N#CCC1(n2cc(-c3ncnc4[nH]ccc34)cn2)CN(C2CCN(Cc3c(Cl)cncc3Cl)CC2)C1 [Example 237, {1-{1-[(3,5-dichloropyridin-4-yl)methyl]piperidin-4-yl}-3-[4-(7H-pyrrolo[2,3-d]pyrimidin-4-yl)-1H-pyrazol-1-yl]azetidin-3-yl}acetonitrile] |
| 5 to 20 | 2.3 | 10 to 50 | COc1ccc(CN2CCC(N3CC(CC#N)(n4cc(-c5ncnc6[nH]ccc56)cn4)C3)CC2)c(Cl)c1OC [Example 239, {1-[1-(2-chloro-3,4-dimethoxybenzyl)piperidin-4-yl]-3-[4-(7H-pyrrolo[2,3-d]pyrimidin-4-yl)-1H-pyrazol-1-yl]azetidin-3-yl}acetonitrile] |
| ≤ 5 | 5.1 | ≤ 10 | N#CCC1(n2cc(-c3ncnc4[nH]ccc34)cn2)CN(C2CCN(S(=O)(=O)c3ccccc3C#N)CC2)C1 [Example 247, 2-[(4-{3-(cyanomethyl)-3-[4-(7H-pyrrolo[2,3-d]pyrimidin-4-yl)-1H-pyrazol-1-yl]azetidin-1-yl}piperidin-1-yl)sulfonyl]benzonitrile] |
| 20 to 30 | 5.2 | > 100 | N#CCC1(n2cc(-c3ncnc4[nH]ccc34)cn2)CN(C2CCN(S(=O)(=O)c3cccc(C#N)c3)CC2)C1 [Example 248, 3-[(4-{3-(cyanomethyl)-3-[4-(7H-pyrrolo[2,3-d]pyrimidin-4-yl)-1H-pyrazol-1-yl]azetidin-1-yl}piperidin-1-yl)sulfonyl]benzonitrile] |
| 5 to 20 | 2.1 | 10 to 50 | N#CCC1(n2cc(-c3ncnc4[nH]ccc34)cn2)CN(C2CCN(S(=O)(=O)c3ccc(C#N)cc3)CC2)C1 [Example 249, 4-[(4-{3-(cyanomethyl)-3-[4-(7H-pyrrolo[2,3-d]pyrimidin-4-yl)-1H-pyrazol-1-yl]azetidin-1-yl}piperidin-1-yl)sulfonyl]benzonitrile] |
| ≤ 5 | 4.7 | 10 to 50 | CN(C)c1ccc(S(=O)(=O)N2CCC(N3CC(CC#N)(n4cc(-c5ncnc6[nH]ccc56)cn4)C3)CC2)cc1C#N [Example 250, 5-[(4-{3-(cyanomethyl)-3-[4-(7H-pyrrolo[2,3-d]pyrimidin-4-yl)-1H-pyrazol-1-yl]azetidin-1-yl}piperidin-1-yl)sulfonyl]-2-(dimethylamino)benzonitrile] |

The remaining lines, values behind:

| SMILES | IC50 [1] [nM] | IC50 Ratio JAK2/JAK1 [2] | IC50 [3] [nM] |
| --- | --- | --- | --- |
| COc1nc(CN2CCC(N3CC(CC#N)(n4cc(-c5ncnc6[nH]ccc56)cn4)C3)CC2)ccc1C#N [Example 224, 6-[(4-{3-(cyanomethyl)-3-[4-(7H-pyrrolo[2,3-d]pyrimidin-4-yl)-1H-pyrazol-1-yl]azetidin-1-yl}piperidin-1-yl)methyl]-2-methoxynicotinonitrile] | 20 to 30 | 2.4 | 50 to 100 |
| N#CCC1(n2cc(-c3ncnc4[nH]ccc34)cn2)CN(C2CCN(Cc3ccnc(Br)c3)CC2)C1 [Example 226, {1-{1-[(2-bromopyridin-4-yl)methyl]piperidin-4-yl}-3-[4-(7H-pyrrolo[2,3-d]pyrimidin-4-yl)-1H-pyrazol-1-yl]azetidin-3-yl}acetonitrile] | 5 to 20 | 1.9 | 10 to 50 |
| N#CCC1(n2cc(-c3ncnc4[nH]ccc34)cn2)CN(C2CCN(Cc3c(F)cccc3Cl)CC2)C1 [Example 227, {1-[1-(2-chloro-6-fluorobenzyl)piperidin-4-yl]-3-[4-(7H-pyrrolo[2,3-d]pyrimidin-4-yl)-1H-pyrazol-1-yl]azetidin-3-yl}acetonitrile] | ≤ 5 | 7.9 | ≤ 10 |
| N#CCC1(n2cc(-c3ncnc4[nH]ccc34)cn2)CN(C2CCN(Cc3c(F)ccc(Cl)c3F)CC2)C1 [Example 228, {1-[1-(3-chloro-2,6-difluorobenzyl)piperidin-4-yl]-3-[4-(7H-pyrrolo[2,3-d]pyrimidin-4-yl)-1H-pyrazol-1-yl]azetidin-3-yl}acetonitrile] | ≤ 5 | 3.9 | ≤ 10 |
| N#CCC1(n2cc(-c3ncnc4[nH]ccc34)cn2)CN(C2CCN(Cc3ccc(C#N)c(F)c3)CC2)C1 [Example 229, 4-[(4-{3-(cyanomethyl)-3-[4-(7H-pyrrolo[2,3-d]pyrimidin-4-yl)-1H-pyrazol-1-yl]azetidin-1-yl}piperidin-1-yl)methyl]-2-fluorobenzonitrile] | 5 to 20 | 6.4 | 50 to 100 |
| Cc1onc(-c2ccccc2)c1CN1CCC(N2CC(CC#N)(n3cc(-c4ncnc5[nH]ccc45)cn3)C2)CC1 [Example 230, {1-{1-[(5-methyl-3-phenylisoxazol-4-yl)methyl]piperidin-4-yl}-3-[4-(7H-pyrrolo[2,3-d]pyrimidin-4-yl)-1H-pyrazol-1-yl]azetidin-3-yl}acetonitrile] | 5 to 20 | 9.3 | > 100 |
| N#CCC1(n2cc(-c3ncnc4[nH]ccc34)cn2)CN(C2CCN(Cc3cccc(Oc4ccccc4)c3)CC2)C1 [Example 233, {1-[1-(3-phenoxybenzyl)piperidin-4-yl]-3-[4-(7H-pyrrolo[2,3-d]pyrimidin-4-yl)-1H-pyrazol-1-yl]azetidin-3-yl}acetonitrile] | 20 to 30 | 2.2 | 50 to 100 |
| CC(C)(C)C(=O)Nc1ncccc1CN1CCC(N2CC(CC#N)(n3cc(-c4ncnc5[nH]ccc45)cn3)C2)CC1 [Example 235] | 5 to 20 | 2.5 | 10 to 50 |
| N#CCC1(n2cc(-c3ncnc4[nH]ccc34)cn2)CN(C2CCN(Cc3c(C(F)(F)F)ccc(Cl)c3F)CC2)C1 [Example 236, {1-{1-[3-chloro-2-fluoro-6-(trifluoromethyl)benzyl]piperidin-4-yl}-3-[4-(7H-pyrrolo[2,3-d]pyrimidin-4-yl)-1H-pyrazol-1-yl]azetidin-3-yl}acetonitrile] | ≤ 5 | 5.5 | ≤ 10 |
| COc1ccc2nc(Cl)c(CN3CCC(N4CC(CC#N)(n5cc(-c6ncnc7[nH]ccc67)cn5)C4)CC3)cc2c1 [Example 238, {1-{1-[(2-chloro-6-methoxyquinolin-3-yl)methyl]piperidin-4-yl}-3-[4-(7H-pyrrolo[2,3-d]pyrimidin-4-yl)-1H-pyrazol-1-yl]azetidin-3-yl}acetonitrile] | ≤ 5 | 6.8 | 10 to 50 |
| N#CCC1(n2cc(-c3ncnc4[nH]ccc34)cn2)CN(C2CC3CCC(C2)N3Cc2c(F)ccc(F)c2Cl)C1 (stereo not drawn) [Example 241, {1-[8-(2-Chloro-3,6-difluorobenzyl)-8-azabicyclo[3.2.1]oct-3-yl]-3-[4-(7H-pyrrolo[2,3-d]pyrimidin-4-yl)-1H-pyrazol-1-yl]azetidin-3-yl}acetonitrile] | ≤ 5 | 3.8 | ≤ 10 |
| Cn1nccc1S(=O)(=O)N1CCC(N2CC(CC#N)(n3cc(-c4ncnc5[nH]ccc45)cn3)C2)CC1 [Example 246, {1-{1-[(1-Methyl-1H-pyrazol-5-yl)sulfonyl]piperidin-4-yl}-3-[4-(7H-pyrrolo[2,3-d]pyrimidin-4-yl)-1H-pyrazol-1-yl]azetidin-3-yl}acetonitrile] | ≤ 5 | 7.5 | 10 to 50 |
| Cn1ccc(S(=O)(=O)N2CCC(N3CC(CC#N)(n4cc(-c5ncnc6[nH]ccc56)cn4)C3)CC2)n1 [Example 251, {1-{1-[(1-methyl-1H-pyrazol-3-yl)sulfonyl]piperidin-4-yl}-3-[4-(7H-pyrrolo[2,3-d]pyrimidin-4-yl)-1H-pyrazol-1-yl]azetidin-3-yl}acetonitrile] | ≤ 5 | 4.9 | ≤ 10 |
| N#CCC1(n2cc(-c3ncnc4[nH]ccc34)cn2)CN(C2CCN(S(=O)(=O)C3CCCC3)CC2)C1 [Example 253, {1-[1-(cyclopentylsulfonyl)piperidin-4-yl]-3-[4-(7H-pyrrolo[2,3-d]pyrimidin-4-yl)-1H-pyrazol-1-yl]azetidin-3-yl}acetonitrile] | ≤ 5 | 5.8 | ≤ 10 |
